From PubChem BioAssay AID624129 (Sanford-Burnham Center for Chemical Genomics, 2012)
The source made the active and inactive calls. The rule behind the calls is not given here.

Target: C-X-C chemokine receptor type 6 (Homo sapiens) (UniProt O00574)
Test: CXCR6 receptor antagonists, dose response, cell-based, beta-arrestin, DiscoveRx, APJ panel, uHTS hits (AID 624129)
Conditions: CXCR6 beta-arrestin (DiscoveRx) antagonist cell assay; for outcome: CXCR6, dose range 1
[1] = CXCR6, dose range 1, mean IC50 across replicates
[2] = CXCR6, run 2, dose range 1, at 79 µM (top of the series)

Chain of C-X-C chemokine receptor type 6 (Homo sapiens) (O00574 whole entry, looked up): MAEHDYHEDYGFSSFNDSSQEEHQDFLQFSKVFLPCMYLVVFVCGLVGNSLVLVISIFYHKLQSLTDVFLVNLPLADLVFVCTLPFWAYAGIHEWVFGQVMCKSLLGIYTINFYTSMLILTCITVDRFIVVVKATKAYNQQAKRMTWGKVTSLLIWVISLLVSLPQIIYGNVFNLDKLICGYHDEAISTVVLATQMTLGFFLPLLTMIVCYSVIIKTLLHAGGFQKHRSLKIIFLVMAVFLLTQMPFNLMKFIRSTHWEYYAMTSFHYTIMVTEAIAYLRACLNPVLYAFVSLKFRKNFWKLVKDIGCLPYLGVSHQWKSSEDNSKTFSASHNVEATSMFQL

Row | SMILES | outcome | IC50 [1] [µM] | IC50 (CXCR6, run 1, dose range 2) [µM] | inhibition [2] [%] | IC50 (CXCR6, run 2, dose range 2) [µM] | inhibition (CXCR6, run 2, dose range 1, at 39.5 µM (top of the series)) [%]
1 | CCOc1cc(/C=C2\N=C(SCC)SC2=O)cc([N+](=O)[O-])c1OC(C)=O | inactive | 39.3 | 23.8 | 95.5 | 54.8 | –
2 | CCc1ccc(NC(=O)c2nc(S(=O)(=O)Cc3ccccc3)ncc2Cl)cc1 | inactive | 12.1 | 11 | 111 | 13.1 | –
3 | O=C(NC(=S)Nc1ccccc1O)c1cncc(Br)c1 | inactive | 28.4 | 24.7 | 70.2 | 32 | –
4 | CC(Oc1ccccc1)C(=O)Nc1nc(-c2ccccn2)cs1 (stereo not given) | inactive | 14.3 | 11.4 | 97.6 | 17.3 | –
5 | CCCc1cc(=O)oc2cc(OC(=O)CN3C(=O)NC4(CCCC4)C3=O)ccc12 | inactive | 50.5 | 50.5 | 61.7 | > 79 | –
6 | COc1ccc(-c2nn(C)c(=O)c3ccccc23)cc1NC(=O)Cn1nc(C)c2ccccc2c1=O | inactive | 34.5 | 21.8 | 72.1 | 47.2 | –
7 | O=C(NC(=S)Nc1ccccc1O)c1cccnc1 | inactive | 30.3 | 30.3 | 58.4 | > 79 | –
8 | COC(=O)c1ccccc1-c1c2ccc(=N)cc-2oc2cc(N)ccc12 | inactive | 17.8 | 17.1 | 88.3 | 18.6 | –
9 | CC(=O)Nc1nc2ccccc2n1CCOc1ccccc1Cl | inactive | 11.9 | 8.79 | 80.9 | 15 | –
10 | N#Cc1c([N+](=O)[O-])cc([N+](=O)[O-])cc1S(=O)(=O)Cc1ccccc1 | inactive | 11.8 | 11.1 | 114 | 12.6 | –
11 | O=C(Nc1ccc(Oc2ccccc2)cc1)c1csc([C@@H]2O[C@H](CO)[C@H](O)[C@H](O)[C@H]2O)n1 | inactive | 40.1 | 40.1 | 57.4 | > 79 | –
12 | CNC(=O)c1nnsc1S(=O)c1ccc(Cl)cc1 (stereo not given) | inactive | 13 | 13.2 | 112 | 12.7 | –
13 | CN(C)CC1CC/C(=C\c2ccc(O)cc2)C1=O (stereo not given) | inactive | 14 | 14.3 | 111 | 13.8 | –
14 | Cn1cnc([N+](=O)[O-])c1S(=O)(=O)c1cccc(Cl)c1 | inactive | 12.1 | 12.4 | 112 | 11.9 | –
15 | COC(=O)c1cc(CSc2nc3ccc(C)cc3[nH]2)oc1C | inactive | 32.9 | 28.7 | 66.8 | 37.1 | –
16 | Cc1cccc(CS(=O)(=O)c2ncc(Cl)c(C(=O)NCc3ccccc3)n2)c1 | inactive | 13.1 | 11.5 | 112 | 14.7 | –
17 | CC(O)CN(CC(C)O)c1ccc2c(c1)Cc1cc([N+](=O)[O-])ccc1-2 (stereo not given) | inactive | 21.4 | 20.1 | 76 | 22.7 | –
18 | O=C1C=CC(=O)N1c1ccc(N2CCCCC2)cc1 | inactive | 18.3 | 17.5 | 113 | 19.1 | –
19 | O=C(Nc1ccccc1)c1ccc(Nc2c([N+](=O)[O-])cc([N+](=O)[O-])c3ccccc23)cc1 | inactive | 44.4 | 65.1 | 98.6 | 23.6 | –
20 | COc1cc(/C=C2\SC(=O)N(c3ccc(Cl)cc3)C2=O)cc([N+](=O)[O-])c1O | inactive | 20.6 | 12.8 | 88.6 | 28.4 | –
21 | CCCNC(=O)c1nnsc1S(=O)c1ccc(Cl)cc1 (stereo not given) | inactive | 11.7 | 11.8 | 112 | 11.7 | –
22 | CCN(CC(=O)NC(C)(C)C)Cc1nc2c(Br)cc(Br)cc2c(=O)[nH]1 | inactive | 13.1 | 12.4 | – | 13.8 | 74.7
23 | COC(=O)c1ccc(CCc2cc(O)c(Br)cc2O)cc1 | inactive | 43.1 | 19.5 | 111 | 66.8 | –
24 | CC(=O)OC1CCC2(C)C(CCC3C4CC=C(C(C)=O)C4(C)OC(=O)CC32)C1 (stereo not given) | inactive | 24.2 | 22.6 | 96.2 | 25.7 | –
